Experimental data reported in patent US12558397B2, “Composition for prevention, amelioration, or treatment of urination-related diseases comprising cephalotocin” (KOREA RESEARCH INSTITUTE OF CHEMICAL TECHNOLOGY, priority 2020, dated 2026).

Legend:
Type in all cases: cell-based
human oxytocin receptor = biological target: T1, human oxytocin receptor (Homo sapiens, UniProt P30559); test: Oxytocin receptor OXTR activity/inhibitory effect, intracellular calcium by calcium dye fluorescence imaging; settings: ECSV304 cells overexpressing human oxytocin receptor, FIGS. 3 and 4
T1 construct: expressed in transfected cells; host or cells: recombinant human epithelial cells, cell line ECSV304 as printed
T1 sequence (P30559 1-389): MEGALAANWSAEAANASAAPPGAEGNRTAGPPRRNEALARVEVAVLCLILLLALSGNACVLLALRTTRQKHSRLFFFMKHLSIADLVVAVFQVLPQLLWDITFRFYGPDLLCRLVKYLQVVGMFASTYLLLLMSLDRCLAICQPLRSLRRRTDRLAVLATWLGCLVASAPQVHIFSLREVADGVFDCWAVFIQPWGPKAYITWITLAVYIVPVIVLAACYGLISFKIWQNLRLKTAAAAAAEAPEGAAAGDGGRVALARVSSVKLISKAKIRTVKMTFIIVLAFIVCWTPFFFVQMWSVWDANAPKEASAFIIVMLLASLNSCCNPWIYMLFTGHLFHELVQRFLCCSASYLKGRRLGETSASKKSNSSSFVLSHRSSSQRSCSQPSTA
Experimental: Recombinant human epithelial cells overexpressing human oxytocin receptor (Name of cell line: ECSV304) were cultured and treated with cephalotocin at different concentrations at room temperature. The change in intracellular calcium concentration induced by cephalotocin-oxytocin receptor binding was measured by calcium dye fluorescence imaging.
To confirm the receptor activation effect, the response to increasing the intracellular calcium concentration that oxytocin 1 μM may cause was taken as 100%, and the relative magnitude of the response induced when treated with cephalotocin alone without oxytocin was measured
(§1) To confirm the receptor inhibitory effect, the response to increasing the intracellular calcium concentration that oxytocin 30 nM may cause was taken as 100% standard, and the relative magnitude of the response induced when treated with oxytocin 30 nM and cephalotocin simultaneously was measured.
(§2) . The results confirming the regulatory effect on the receptors OXTR, V1AR, V1BR and V2R by Octopus vulgaris octopressin are shown in FIGS. 3 and 4, respectively.

[1] = biological target: T2, human vasopressin V2 receptor (Homo sapiens, UniProt P30518); test: Vasopressin receptor V2R activity/inhibitory effect, intracellular cAMP by HTRF; settings: CHO cells overexpressing human V2 receptor, FIGS. 3 and 4
T2 construct: expressed in transfected cells; host or cells: CHO (Chinese hamster ovary) cells
Experimental: Recombinant human vasopressin V2 receptor-overexpressing Chinese hamster ovary cells (cell line name: CHO) were cultured and treated with cephalotocin at different concentrations at room temperature for 30 minutes, and intracellular cAMP concentration accumulated for 30 minutes by cephalotocin-vasopressin V2 receptor binding was measured by the HTRF fluorescence imaging method. […]. To confirm the receptor inhibitory effect, the response to increasing the intracellular cAMP concentration that vasopressin 0.03 nM may cause for 30 minutes was taken as 100% standard, and the relative magnitude of the response induced when treated with vasopressin 0.03 nM and cephalotocin simultaneously was measured.
as §2

[2] = biological target: T3, human vasopressin V1A receptor (Homo sapiens, UniProt P37288); test: Vasopressin receptor V1AR activity/inhibitory effect, intracellular calcium by calcium dye fluorescence imaging; settings: CHO cells overexpressing human V1A receptor, FIGS. 3 and 4
T3 construct: expressed in transfected cells; host or cells: CHO (Chinese hamster ovary) cells
T3 sequence (P37288 whole entry): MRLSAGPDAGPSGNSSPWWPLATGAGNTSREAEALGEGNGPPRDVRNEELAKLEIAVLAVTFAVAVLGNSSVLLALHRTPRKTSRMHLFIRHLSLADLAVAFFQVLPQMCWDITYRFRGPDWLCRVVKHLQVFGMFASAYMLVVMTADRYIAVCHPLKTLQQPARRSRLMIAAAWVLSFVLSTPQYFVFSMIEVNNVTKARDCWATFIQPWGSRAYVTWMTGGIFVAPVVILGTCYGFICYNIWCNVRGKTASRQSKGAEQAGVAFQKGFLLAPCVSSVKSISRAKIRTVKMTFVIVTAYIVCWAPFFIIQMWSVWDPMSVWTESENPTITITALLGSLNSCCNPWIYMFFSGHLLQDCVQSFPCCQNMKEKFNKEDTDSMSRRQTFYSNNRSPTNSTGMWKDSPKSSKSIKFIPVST
Experimental: (§3) Recombinant human vasopressin V1A receptor-overexpressing Chinese hamster ovary cells (cell line name: CHO) were cultured and treated with cephalotocin at different concentrations at room temperature, and the change in intracellular calcium concentration induced by cephalotocin-vasopressin V1A receptor binding was measured by the calcium dye fluorescence imaging method.
as §1, with “vasopressin 10” for “oxytocin 30”
as §2

[3] = biological target: T4, human vasopressin V1B receptor (Homo sapiens, UniProt P47901); test: Vasopressin receptor V1BR activity/inhibitory effect, intracellular calcium by calcium dye fluorescence imaging; settings: RBL cells overexpressing human V1B receptor, FIGS. 3 and 4
T4 construct: expressed in transfected cells; host or cells: RBL (basophilic leukemia) cells
T4 sequence (P47901 1-424): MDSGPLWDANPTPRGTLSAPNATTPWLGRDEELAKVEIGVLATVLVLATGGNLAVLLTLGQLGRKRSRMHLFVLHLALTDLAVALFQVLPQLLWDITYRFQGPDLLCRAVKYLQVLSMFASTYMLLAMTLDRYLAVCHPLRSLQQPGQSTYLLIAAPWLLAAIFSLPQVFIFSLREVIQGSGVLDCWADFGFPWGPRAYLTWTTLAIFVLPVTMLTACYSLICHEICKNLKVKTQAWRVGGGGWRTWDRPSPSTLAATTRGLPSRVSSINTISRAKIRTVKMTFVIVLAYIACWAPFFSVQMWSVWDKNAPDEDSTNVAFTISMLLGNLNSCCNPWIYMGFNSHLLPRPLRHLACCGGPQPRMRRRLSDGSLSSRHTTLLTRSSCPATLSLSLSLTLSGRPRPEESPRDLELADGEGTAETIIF
Experimental: as §3, with “V1B” for “V1A”, “[…] basophilic leukemia” for “Chinese hamster ovary cells”, “RBL) was” for “CHO) were”
The results confirming the regulatory effect on the receptors OXTR, V1AR, V1BR and V2R by Octopus vulgaris octopressin are shown in FIGS. 3 and 4, respectively.

octopressin
does not regulate: Regulation (activation/inhibition) of OXTR (human oxytocin receptor) | Regulation (activation/inhibition) of V2R [1] | Regulation (activation/inhibition) of V1AR [2] | Regulation (activation/inhibition) of V1BR [3]
